Experimental data taken from ChEMBL document CHEMBL4190285, “Borapetoside E, a Clerodane Diterpenoid Extracted from Tinospora crispa, Improves Hyperglycemia and Hyperlipidemia in High-Fat-Diet-Induced Type 2 Diabetes Mice” (J Nat Prod, 2017).
Activity calls are given as the source filed them. The calls are words filed in the database; no cut-off is given here.

Experiments:
Mus musculus [1] = assay: Antihyperlipidemic activity in high fat diet-induced obese C57BL/6J mouse assessed as serum free fatty acid levels at 200 mg/kg, ip administered twice daily for 2.5 days measured at 2 hrs post last dose (reference value: 1.41 +/- 0.3 mmol/L); assay type: functional
Mus musculus [2] = assay: Antihyperglycemic activity in high fat diet-induced obese C57BL/6J mouse assessed as reduction in blood glucose level at 200 mg/kg, ig administered twice daily for 2.5 days measured up to 5 days post last dose; assay type: functional, organism-based
Mus musculus [3] = assay: Antihyperlipidemic activity in high fat diet-induced obese C57BL/6J mouse assessed as serum HDL-C levels at 200 mg/kg, ip administered twice daily for 2.5 days measured at 2 hrs post last dose (reference value: 1.82 +/- 0.58 mmol/L); assay type: functional
Mus musculus [4] = assay: Antihyperlipidemic activity in high fat diet-induced obese C57BL/6J mouse assessed as serum LDL-C levels at 200 mg/kg, ip administered twice daily for 2.5 days measured at 2 hrs post last dose (reference value: 2.54 +/- 0.87 mmol/L); assay type: functional
Mus musculus [5] = assay: Antihyperlipidemic activity in high fat diet-induced obese C57BL/6J mouse assessed as serum total cholesterol levels at 200 mg/kg, ip administered twice daily for 2.5 days measured at 2 hrs post last dose (reference value: 4.56 +/- 1.01 mmol/L); assay type: functional
Mus musculus [6] = assay: Antihyperlipidemic activity in high fat diet-induced obese C57BL/6J mouse assessed as serum triglyceride levels at 200 mg/kg, ip administered twice daily for 2.5 days measured at 2 hrs post last dose (reference value: 1.31 +/- 0.48 mmol/L); assay type: functional
Mus musculus [7] = assay: Antihyperglycemic activity in high fat diet-induced obese C57BL/6J mouse assessed as reduction in blood glucose level at 200 mg/kg, ig administered as single dose; assay type: functional, organism-based

For CN(C)C(=N)NC(=N)N [METFORMIN], the Activity (Mus musculus [1]) was 1.18 mmol/L, the Activity (Mus musculus [2]) was “Active” and the Activity (Mus musculus [3]) was 2.14 mmol/L. For the same compound, the Activity (Mus musculus [4]) was 2.93 mmol/L, the Activity (Mus musculus [5]) was 4.47 mmol/L and the Activity (Mus musculus [6]) was 0.97 mmol/L. The Activity (Mus musculus [7]) was “Active”.
